Here are results for 105 compounds from PubChem BioAssay AID651717 (Broad Institute, 2012).

Molecules are shown by their SMILES. Where only a bound is given, the exact number is not on record here.

For this test, the system named is mESC Bmi1-luciferase reporter, firefly/renilla ratio, 24 h. Put plainly: Bmi1-luciferase reporter activators in mESC, dose response, esBAF inhibitor project, mouse embryonic stem cells, cherry-pick (AID 651717).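 Note: luciferase knocked into Bmi1 locus with EF-1a renilla as cell number control; rising ratio signals esBAF inhibition which derepresses Bmi1.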 In general terms: Reporter assays use an easily measured gene product as a stand-in for the process of interest.
With `COC(=O)c1ccc2c(C)c(C3(O)CCCCC3)[nH]c2c1`, the AC40 was 7.47 µM.

Take `Oc1[nH]c2ccccc2c1/C=N/c1nccs1`: the AC40 was 4.59 µM.

With `Cc1cc2oc(=O)cc(CN3CCC(C)CC3)c2cc1Cl`, the AC40 was 9.54 µM.

For the compound `CC(=O)Nc1ccc(CNc2nc3cc(-c4ccsc4)sc3c(=O)n2C)cc1`, the AC40 was 6.16 µM.

On to `CCn1c(=N)n(CC(=O)c2cccc(OC)c2)c2ccccc21`, for which the AC40 is 8.58 µM.

For the compound `O=C(NC1CCCCC1)N1CCc2ccccc2C1`, the AC40 is 6.76 µM.

As to `CCC(=O)Nc1cccc(-c2nnc(-c3ccccc3)o2)c1`, the AC40 was 2.83 µM.

With `CC(C)C1C(=O)N(Cc2cn(CCC3OCCCO3)nn2)CCS(=O)(=O)N1Cc1ccc(-c2ccc(Cl)nc2)cc1` (stereo not given), the AC40 was 17.8 µM.

`C(=NOCc1ccccc1)c1cccnc1`: the AC40 was 4.28 µM.

Take `Nc1ccc(C#Cc2ccc3c(=O)c4ccccc4oc3c2)cc1`: the AC40 was 3.64 µM.

Turning to `COc1ccc(CNC(=O)c2ccc3ccccc3n2)cc1`, the AC40 is 29.4 µM.

With `CC(C)(C)NC(=O)Cn1nnc(-c2ccccc2Cl)n1`, the AC40 was 5.29 µM.

Turning to `Cc1ccc(C)c(N2CCN(C(=O)CCc3nc(-c4cccc(Cl)c4)no3)CC2)c1`, the AC40 was 2.83 µM.

With `Cc1cccc(NC(=O)c2cc(-c3cc(Cl)ccc3O)n[nH]2)c1`, the AC40 is 2.08 µM.

`NCC(=O)c1ccccc1`: the AC40 is 23 µM.

Turning to `O=C(NCc1ccc2c(c1)OCO2)Nc1cccc(Cl)c1`, the AC40 was 7.4 µM.

As for `O=C(COC(=O)c1cccc(S(=O)(=O)N2CCOCC2)c1)Nc1nc(-c2ccccc2Cl)cs1`, the AC40 was 16.2 µM.

Turning to `COc1cccc(NC(=O)C(=O)NCCC2CCCCN2S(=O)(=O)c2ccccc2)c1` (stereo not given), the AC40 is 2.93 µM.

In the case of `COc1cc(C)ccc1OCc1cc(C(=O)N2CCN(C3CCCCC3)CC2)no1`, the AC40 was 5.3 µM.

In the case of `CCCc1nc2c3ccccc3ccn2c1Cc1ccc(C)cc1`, the AC40 was 0.443 µM.

Take `Cc1nc(Nc2ccccc2)sc1C(=O)c1ccc(F)cc1`: the AC40 is 3.93 µM.

In the case of `CCN(CC)c1ccc2cc(C(=O)c3cccs3)c(=O)oc2c1`, the AC40 is 11.6 µM.

Regarding `NC(=O)c1ccc(CSc2nc3ccccc3s2)cc1`, the AC40 is 4.64 µM.

On to `COc1cc2ccccc2cc1C(=O)NC1CCC(C)CC1` (stereo not given), for which the AC40 was 8.67 µM.

With `O=C1CCN(Cc2ccccc2)CCN1CCSc1ccccc1`, the AC40 was 3.08 µM.

For the compound `Cc1ccc(Nc2nc(-c3cccnc3)cs2)cc1Cl`, the AC40 is 0.961 µM.

In the case of `COc1ccc2c(=O)c(-c3ccc(OC)c(OC)c3)coc2c1`, the AC40 is 2.69 µM.

Take `CCC(=O)Nc1nc(-c2ccc3c(c2)CC(C)N3S(C)(=O)=O)cs1` (stereo not given): the AC40 is 7.5 µM.

Consider `O=C(NC1CCCC1)c1cc(-c2ccc(Cl)c(Cl)c2)on1`, for which the AC40 is 2.8 µM.

For `O=C(c1c(Cl)nc2sccn12)N(C(=O)c1c(Cl)nc2sccn12)c1ccc(Cl)cn1`, the AC40 was 0.693 µM.

In the case of `C=CCNc1nc(NCc2cccc(OC)c2)c2sc(-c3ccccc3)cc2n1`, the AC40 is 1.86 µM.

Consider `COc1cccc(C(=O)Nc2ccc(Cl)c(C(F)(F)F)c2)c1`, for which the AC40 is 5.59 µM.

For `COc1ccccc1-c1cnc(C(O)c2ccc(C)cc2)[nH]1` (stereo not given), the AC40 was 10.2 µM.

In the case of `CCCC(=O)Nc1sc2c(c1C#N)CCCCC2`, the AC40 was 2.39 µM.

Consider `O=C1CC(/C=C/c2ccncc2)=Nc2ccccc2N1`, for which the AC40 was 6.57 µM.

As to `COC(=O)Cc1csc(Nc2ccccc2Cl)n1`, the AC40 is 6.92 µM.

For the compound `CO[C@H]1CN(C)C(=O)c2cc(NC(=O)Nc3ccc4c(c3)OCO4)ccc2OC[C@@H](C)NC[C@H]1C`, the AC40 is 8.26 µM.

With `O=C(Nc1cccc2ccccc12)OCc1ccccc1`, the AC40 was 3.96 µM.

On to `COc1ccc(C(=O)/C=C(\C)Nc2ccc3c(c2)OCO3)cc1`, for which the AC40 is 1.85 µM.

`CO[C@@H]1CN(C)C(=O)c2ccc(NC(=O)Nc3ccc4c(c3)OCO4)cc2OC[C@H](C)NC[C@@H]1C`: the AC40 is 5 µM.

In the case of `CC(c1ccccc1)c1nnc(NC(=O)Nc2ccccc2F)s1` (stereo not given), the AC40 was 6.51 µM.

Regarding `CCOC(=O)C1=C(CSc2nc(-c3ccccc3)ccc2C#N)OC(N)=C(C#N)C1c1ccccc1` (stereo not given), the AC40 was 12.4 µM.

Regarding `CN=Cc1cc(-c2ccccc2)sc1O`, the AC40 was 12.9 µM.

Consider `O=C(NCCO)c1cccc(-c2cnc3c(Nc4cccc(OC(F)(F)C(F)F)c4)nccn23)c1`, for which the AC40 is 4.46 µM.

With `CCC(C)(C)C1CCc2[nH]nc(C(=O)NC3CCCCC3)c2C1` (stereo not given), the AC40 is 6.44 µM.

As to `COc1ccccc1C(=O)Nc1cccc2cccnc12`, the AC40 is 13.9 µM.

As to `O=C(CN1CCCCCC1)Nc1ccc(Br)cc1Br`, the AC40 is 8.51 µM.

Regarding `COc1cc(/C=C2/C(=N)N3N=C(CC(=O)N4CCOCC4)SC3=NC2=O)ccc1OCc1ccc(F)cc1`, the AC40 was 3.4 µM.

For the compound `CC(C)(C)Nc1nc(Cl)nc(Nc2ccccc2)n1`, the AC40 was 2.09 µM.

In the case of `Cc1csc(-c2ccc3cc(Cl)cc(Cl)c3n2)n1`, the AC40 was 5.82 µM.

With `O=C(Cc1c(O)c2ccccc2oc1=O)c1ccc(F)cc1`, the AC40 is 2 µM.

With `C/C(=N/O)c1cccc(N2Cc3ccccc3C2)c1`, the AC40 was 18.5 µM.

For `Cc1ccc(C(=O)Nc2cccc(O)c2)cc1S(=O)(=O)N1CCCCCC1`, the AC40 is 14.5 µM.

For the compound `CCc1cc(CNC(=O)c2cc(COc3ccc(C)nc3)on2)on1`, the AC40 is 6.87 µM.

Turning to `O=c1c2ccccc2oc2cc(Br)ccc12`, the AC40 is 7.16 µM.

As to `COc1ccc(-c2ccc(OC)cc2)cc1`, the AC40 is 4.64 µM.

Regarding `CNc1oc(-c2ccc(OCc3ccccc3)cc2)nc1C#N`, the AC40 is 24.4 µM.

Consider `CCS(=O)(=O)n1nc(-c2ccc(Cl)cc2)nc1SC`, for which the AC40 was 4.79 µM.

Consider `CS(=O)(=O)c1cccc(-c2csc(N3CCC(C(N)=O)CC3)n2)c1`, for which the AC40 was under 0.26 µM.

As to `CC(=O)Nc1ccc(NC(=O)c2cccc(-c3cc4ccccc4oc3=O)c2)cc1`, the AC40 was 9.75 µM.

Take `CN(CC(=O)Nc1ccccc1Br)C(=O)c1cc2c(s1)CCCCC2`: the AC40 is 2.75 µM.

As to `CC(=O)n1nc(-c2ccccc2)nc1NCc1ccc(N(C)C)cc1`, the AC40 is 3.41 µM.

On to `CC(C)c1ccc(-c2nn(-c3ccccc3)cc2C2C(C#N)=C(N)OC3=C2C(=O)CC(C)(C)C3)cc1` (stereo not given), for which the AC40 is 29.1 µM.

For `COc1ccc(-n2nc(C(=O)NCC(=O)N3CCN(c4ccccc4)CC3)c3ccccc3c2=O)c(OC)c1`, the AC40 was 3.37 µM.

Regarding `COc1ccc(-c2cc(C(=O)Nc3cccnc3)no2)cc1OC`, the AC40 is 4.87 µM.

With `Cc1[nH]c2ccccc2c(=O)c1CN(C)Cc1ccccc1`, the AC40 is 10.4 µM.

For the compound `CC(NC(=O)c1cc(COc2ccc(-n3cncn3)cc2)on1)c1ccc(F)cc1` (stereo not given), the AC40 is 5.4 µM.

As to `Cc1ccc(NC(=O)C2CCCN(c3ncccn3)C2)cc1C` (stereo not given), the AC40 is 4.21 µM.

For `c1ccc(-c2cc3ccccc3[nH]2)cc1`, the AC40 was 5.17 µM.

With `Cn1cccc1C(=O)OCc1ccc(C(C)(C)C)cc1`, the AC40 is 4.64 µM.

`COc1cccc(/C=N/n2c(N)nc3ccccc32)c1OC`: the AC40 is 3.21 µM.

With `CCN(CC)C(=O)OCc1c(-c2ccccc2)ncc2ccccc12`, the AC40 is 2.25 µM.

As for `C/C(=N\OC(=O)NC(C)C)c1sc(-c2ccccc2)nc1C`, the AC40 is 7.63 µM.

For `COc1ccc(C(=O)Nc2ccc(Cl)cn2)cc1Cl`, the AC40 was 2.38 µM.

As to `COc1ccccc1CNC(=O)C[C@H]1CC[C@@H]2[C@H](COC[C@H](O)CN2C(=O)Nc2ccc(Cl)cc2)O1`, the AC40 was 14.1 µM.

`Cc1cc(C)c2nc(N3CCCC(C(=O)NC4CCCC4)C3)sc2c1` (stereo not given): the AC40 is 9.66 µM.

`O=C(CC(=O)c1ccccc1)Nc1ccccc1`: the AC40 was 3.94 µM.

`COc1ccc(Nc2cc(C)c3c(O)cccc3n2)cc1`: the AC40 is 3.84 µM.

Regarding `c1csc(Cc2nc3ccccc3[nH]2)c1`, the AC40 is 16.2 µM.

Consider `Nc1nc(-c2ccc(Oc3ccccc3)cc2)cs1`, for which the AC40 is 7.87 µM.

As for `N#Cc1ccc(C=NN2CCCCCC2)cc1`, the AC40 is 2.62 µM.

As for `COc1ccc(C)cc1NCc1cc(=O)oc2cc(-c3ccccc3)c(O)cc12`, the AC40 was 32.4 µM.

Regarding `CCCC(=O)Nc1nc(-c2ccc(OC)cc2)cs1`, the AC40 is 7.09 µM.

`Cc1cccc(NC(=O)Nc2cccc(F)c2)n1`: the AC40 is 8.39 µM.

Regarding `C/C(CC(=O)Nc1ccc(OCc2ccccc2)cc1)=N\NC(=O)C(=O)Nc1ccc(C)c(Cl)c1`, the AC40 was 1.03 µM.

As to `COC(=O)/C(=C1\Oc2ccc(C(C)(C)C)cc2S1)C(F)(F)F`, the AC40 is 1.45 µM.

In the case of `CCn1c(COc2ccccc2C)nc2ccccc21`, the AC40 was 3.51 µM.

As for `O=C(Cc1ccccc1)Nc1ccc2c(c1)OC1(CCCC1)O2`, the AC40 is 3.73 µM.

In the case of `O=C(c1cc(COc2cccc(C(F)(F)F)c2)on1)N1CCCC1`, the AC40 was 17.5 µM.

As to `O=C(Nc1ccccc1Cl)NC1CCCCCCC1`, the AC40 is 5.67 µM.

With `Cc1sc(NC(=O)C2CCCCC2C(=O)O)c(C(N)=O)c1-c1ccc(C(C)C)cc1` (stereo not given), the AC40 is 6.81 µM.

As to `Oc1ccc(-c2nnc(SCc3ccccc3)o2)cc1`, the AC40 was 7.97 µM.

Turning to `COC(=O)c1ccc2[nH]c(C3(O)CCCCC3)c(C)c2c1`, the AC40 is 5.55 µM.

As to `O=C(O)CCc1ccc(-c2ccc(Br)cc2)n1-c1cccc(O)c1`, the AC40 was 10.8 µM.

With `CN(C)S(=O)(=O)c1ccc(C(=O)Nc2ccc3c(c2)CCC3)cc1`, the AC40 was 4.91 µM.

Turning to `Cc1cccc(C)c1OCc1cc(C(=O)N2CCC(C3CCCCC3)C2)no1` (stereo not given), the AC40 was 4.72 µM.

Turning to `CCC(=O)c1ccc(N2CCCC2)c(F)c1`, the AC40 is 6.47 µM.

For the compound `CNC(=O)c1ccc(-c2cc3onc(-c4ccccc4)c3c(=O)n2C)cc1`, the AC40 was 1.16 µM.

In the case of `COC(=O)c1c(-c2ccc(Br)cc2)noc1N`, the AC40 was 14.7 µM.

As for `Cc1ccc(N(Cc2ccccc2)C(=O)c2cccc(S(=O)(=O)N3CC(C)OC(C)C3)c2)cc1` (stereo not given), the AC40 was 29.6 µM.

Turning to `CO[C@@H]1CN(C)C(=O)c2cc(NC(=O)Nc3ccc4c(c3)OCO4)ccc2OC[C@H](C)NC[C@@H]1C`, the AC40 was 6.97 µM.

With `CCc1nc(SCc2ccc(Br)cc2)n[nH]1`, the AC40 is 2.5 µM.

For `Cc1ccc2[nH]c(C(=O)N3CCCCC3)cc2c1`, the AC40 was 6.79 µM.

`O=C1C(=Cc2ccccn2)CCc2ccccc21`: the AC40 is 20.1 µM.

Regarding `CC1CCCN(C(=O)c2cc3c(=O)n4ccccc4nc3s2)C1` (stereo not given), the AC40 was 14.1 µM.
